Measurements: patent EP1561465A2, “Methods of use of fluoroquinolone compounds against bacteria” (LG Life Sciences, Ltd., priority 1999, dated 2001)
Converted amounts (≈) assume the structure as drawn. “And” between values parts separate entries of the source, which are not always exact repeats. Equal entries are not always repeated. Where two headings read alike, the source gives them in different places.

Tests used:
Assay type in all cases: cell-based
[1] = test system: Gram positive anaerobic and facultative anaerobic pathogens; assay: microbe, parasite or virus in culture; settings: Thomasclavelia ramosa, ATCC25582
Enterococcus faecium = assay: MIC by agar macrodilution (NCCLS), 373 Gram positive isolates, Athens 1998
[2] = test system: Gram negative anaerobic pathogens and facultative anaerobic pathogens; assay: MIC by agar dilution, Brucella HK agar with 5% laked sheep blood, anaerobic reference strains
Enterococcus faecalis = assay: MIC by agar dilution (NCCLS), 411 isolates Buenos Aires 1998-99; settings: Enterococcus faecalis (n = 48)
Providencia rettgeri = assay: MIC by NCCLS broth microdilution, 1100 Japanese clinical isolates 1997-1998
Staphylococcus aureus = assay: MIC by NCCLS reference broth microdilution, 450 respiratory tract pathogens
Salmonella spp. = assay: MIC by agar dilution (NCCLS M7-A4), 288 enteropathogenic isolates, gemifloxacin and 15 other antimicrobials; settings: read-out: MIC
[3] = β-lactamase positive and erythromycin resistant (n = 10)

For CO/N=C1\CN(c2nc3c(cc2F)c(=O)c(C(=O)O)cn3C2CC2)CC1CN (racemic) [Gemifloxacin, (R,S)-7-(3-aminomethyl-4-methoxyiminopyrrolidin-1-yl)-1-cyclopropyl-6-fluoro-4-oxo-1,4-dihydro-1,8-naphthyridine-3-carboxylic acid], the MIC [1] was 0.5 µg/mL (≈ 1.28 µM), the “MIC distribution (µg/ml) 0.03” value (Enterococcus faecium) was 0 and the “MIC distribution (µg/ml) 0.06” value (Enterococcus faecium) was 1. The “MIC distribution (µg/ml) 0.125” value (Enterococcus faecium) was 4, the “MIC distribution (µg/ml) 0.25” value (Enterococcus faecium) was 0 and the “MIC distribution (µg/ml) 0.5” value (Enterococcus faecium) was 4. For the same compound, the “MIC distribution (µg/ml) 1” value (Enterococcus faecium) was 0, the “MIC distribution (µg/ml) 2” value (Enterococcus faecium) was 0 and the “MIC distribution (µg/ml) 4” value (Enterococcus faecium) was 2. For the same compound, the “MIC distribution (µg/ml) 16” value (Enterococcus faecium) was 3, the “MIC distribution (µg/ml) ≤0.015” value (Enterococcus faecium) was 0 and the “MIC distribution (µg/ml) ≥32” value (Enterococcus faecium) was 0. For the same compound, the MIC50 (Enterococcus faecium; Enterococcus faecium, n = 14 isolates, read-out: MIC50) was 0.25 µg/mL (≈ 0.642 µM), the MIC90 (Enterococcus faecium; Enterococcus faecium, n = 14 isolates, read-out: MIC90) was 16 µg/mL (≈ 41.1 µM) and the “MIC Range” value (Enterococcus faecium; n = 14 isolates) was 0.06 to 16 µg/mL. For the same compound, the “MIC distribution (µg/ml) 8” value (Enterococcus faecium; number of isolates at MIC 8 µg/ml, n = 14) was 8, the MIC [2] was 1 µg/mL and 0.125 µg/mL and the MIC ([2]; Bacteroides eggerthii, ATCC27754, Bacteroides eggerthii ATCC27754, read-out: MIC) was 4 µg/mL (≈ 10.3 µM). For the same compound, the MIC ([2]; Bacteroides fragilis, ATCC25285, Bacteroides fragilis ATCC25285, read-out: MIC) was 0.5 µg/mL (≈ 1.28 µM), the MIC ([2]; Bacteroides fragilis, Bacteroides fragilis GA15562, read-out: MIC) was 0.25 µg/mL (≈ 0.642 µM) and the MIC ([2]; Bacteroides fragilis, Bacteroides fragilis GA-I0558, read-out: MIC) was 0.5 µg/mL (≈ 1.28 µM). For the same compound, the MIC ([2]; Bacteroides fragilis, Bacteroides fragilis GA-I7955, read-out: MIC) was 2 µg/mL (≈ 5.14 µM), the MIC ([2]; Bacteroides fragilis, Bacteroides fragilis GAI10150, read-out: MIC) was 0.5 µg/mL (≈ 1.28 µM) and the MIC ([2]; Bacteroides fragilis, Bacteroides fragilis GAI30079, read-out: MIC) was 8 µg/mL (≈ 20.5 µM). The MIC ([2]; Bacteroides fragilis, Bacteroides fragilis GAI30144, read-out: MIC) was 2 µg/mL (≈ 5.14 µM), the MIC ([2]; Bacteroides fragilis, NCTC10581, Bacteroides fragilis NCTC10581, read-out: MIC) was 0.5 µg/mL (≈ 1.28 µM) and the MIC ([2]; Bacteroides ovatus, ATCC8483, Bacteroides ovatus ATCC8483, read-out: MIC) was 1 µg/mL (≈ 2.57 µM). It also gave an MIC ([2]; Bacteroides thetaiotaomicron, ATCC29741, Bacteroides thetaiotaomicron ATCC29741, read-out: MIC) of 2 µg/mL (≈ 5.14 µM), an MIC ([2]; Bacteroides uniformis, ATCC8492, Bacteroides uniformis ATCC8492, read-out: MIC) of 1 µg/mL (≈ 2.57 µM) and an MIC ([2]; Campylobacter gracilis, JCM8538, Campylobacter gracilis JCM8538, read-out: MIC) of at most 0.03 µg/mL. It also gave an MIC ([2]; Campylobacter ureolyticus, NCTC10941, Bacteroides ureolyticus NCTC10941, read-out: MIC) of at most 0.03 µg/mL, an MIC ([2]; Capnocytophaga ochracea, Capnocytophaga ochracea GAI5586, read-out: MIC) of at most 0.03 µg/mL and an MIC ([2]; Desullomonas pigra DSM749, read-out: MIC) of 0.06 µg/mL (≈ 0.154 µM). The MIC ([2]; Fusobacterium necrophorum, ATCC25286, Fusobacterium necrophorum ATCC25286, read-out: MIC) was 0.25 µg/mL (≈ 0.642 µM), the MIC ([2]; Fusobacterium nucleatum, ATCC25586) was 0.125 µg/mL (≈ 0.321 µM) and the MIC ([2]; Fusobacterium varium, ATCC8501, Fusobacterium varium ATCC8501, read-out: MIC) was 0.5 µg/mL (≈ 1.28 µM). The MIC ([2]; Hoylesella oralis, ATCC33269, Prevotella oralis ATCC33269, read-out: MIC) was 2 µg/mL (≈ 5.14 µM), the MIC ([2]; Parabacteroides distasonis, ATCC8503, Bacteroides distasonis ATCC8503, read-out: MIC) was 0.25 µg/mL (≈ 0.642 µM) and the MIC ([2]; Phocaeicola vulgatus, ATCC8482, Bacteroides vulgatus ATCC8482, read-out: MIC) was 0.25 µg/mL (≈ 0.642 µM). It also gave an MIC ([2]; Porphylomonas gingivalis ATCC33277, read-out: MIC) of 0.06 µg/mL (≈ 0.154 µM), an MIC ([2]; Porphyromonas asaccharolytica, ATCC25260, Porphyromonas asaccharolytica ATCC25260, read-out: MIC) of 0.06 µg/mL (≈ 0.154 µM) and an MIC ([2]; Prevotella bivia, ATCC29303, Prevotella bivia ATCC29303, read-out: MIC) of 16 µg/mL (≈ 41.1 µM). The MIC ([2]; Prevotella buccaeATCC33574, read-out: MIC) was 2 µg/mL (≈ 5.14 µM), the MIC ([2]; Prevotella corporis, Prevotella corporis GAI91000, read-out: MIC) was 1 µg/mL (≈ 2.57 µM) and the MIC ([2]; Prevotella heparinolytica, ATCC35895) was 0.125 µg/mL (≈ 0.321 µM). It also gave an MIC ([2]; Prevotella melaninogenica, Prevotella melaninogenica GAI5490, read-out: MIC) of 1 µg/mL (≈ 2.57 µM), an MIC ([2]; Segatella oris, ATCC33573, Prevotella oris ATCC33573, read-out: MIC) of 0.5 µg/mL (≈ 1.28 µM) and an MIC ([2]; Sutterella wadsworthensis, ATCC51579, Sutterella wadsworthensis ATCC51579, read-out: MIC) of 2 µg/mL (≈ 5.14 µM). The MIC ([2]; Veillonella dispar, ATCC17748, Veillonella dispar ATCC17748, read-out: MIC) was at most 0.03 µg/mL, the MIC ([2]; Veillonella parvula, ATCC10790, Veillonella parvula ATCC10790, read-out: MIC) was 0.06 µg/mL (≈ 0.154 µM) and the MIC90 (Enterococcus faecalis) was 2 µg/mL (≈ 5.14 µM). The “MIC Range” value (Enterococcus faecalis) was 0.008 to 8 µg/mL, the MIC50 (Providencia rettgeri; Providencia rettgeri) was 0.125 µg/mL (≈ 0.321 µM) and the MIC90 (Providencia rettgeri; Providencia rettgeri (n=12)) was 8 µg/mL (≈ 20.5 µM). The “MIC Range” value (Providencia rettgeri; Providencia rettgeri (n=12)) was 0.063 to 16 µg/mL, the MIC (Staphylococcus aureus; Staphylococcus aureus (n = 50)) was 0.00375 to 0.12 µg/mL (≈ 0.00963 to 0.308 µM) and the MIC50 (Staphylococcus aureus; Staphylococcus aureus (n = 50)) was 0.06 µg/mL (≈ 0.154 µM). It also gave an MIC90 (Staphylococcus aureus; Staphylococcus aureus (n = 50)) of 0.12 µg/mL (≈ 0.308 µM), an MIC (Staphylococcus aureus; β-lactamase negative (n = 20)) of 0.06 to 0.12 µg/mL (≈ 0.154 to 0.308 µM) and an MIC50 (Staphylococcus aureus; β-lactamase negative (n = 20)) of 0.12 µg/mL (≈ 0.308 µM). For the same compound, the MIC90 (Staphylococcus aureus; β-lactamase negative (n = 20)) was 0.12 µg/mL (≈ 0.308 µM), the MIC (Staphylococcus aureus; β-lactamase positive (n = 20)) was 0.00375 to 0.12 µg/mL (≈ 0.00963 to 0.308 µM) and the MIC50 (Staphylococcus aureus; β-lactamase positive (n = 20)) was 0.12 µg/mL (≈ 0.308 µM). The MIC90 (Staphylococcus aureus; β-lactamase positive (n = 20)) was 0.123 µg/mL (≈ 0.316 µM), the MIC (Staphylococcus aureus; [3]) was 0.06 to 0.12 µg/mL (≈ 0.154 to 0.308 µM) and the MIC50 (Staphylococcus aureus; [3]) was 0.06 µg/mL (≈ 0.154 µM). For the same compound, the MIC90 (Staphylococcus aureus; [3]) was 0.06 µg/mL (≈ 0.154 µM), the MIC (Salmonella spp.; S. hadar(2), isolates with MICs for ciprofloxacin ≥[…]) was 0.25 µg/mL (≈ 0.642 µM) and the MIC (Salmonella spp.; S. newport(1), isolate with MIC for ciprofloxacin ≥[…]) was 0.25 µg/mL (≈ 0.642 µM). For the same compound, the MIC (Salmonella spp.; S. virchow(2), isolates with MICs for ciprofloxacin ≥[…]) was 0.12 µg/mL (≈ 0.308 µM) and the MIC (Salmonella spp.; Salmonella, S. tshiongwe(1), isolate with MIC for ciprofloxacin ≥[…]) was 0.25 µg/mL (≈ 0.642 µM).
